The data set is described as follows: solvent given as SMILES.

This note sets out measurements from the Deep4Chem optical property database.

On to `c1cc2ccc1CCCc1cc3c(cc1CCCc1ccc(c4nsnc14)CCC3)CCC2`, for which the absorption maximum runs as follows: (in C1CCCCC1) 402 nm; (in CC#N) 403 nm; (in ClC(Cl)Cl) 402 nm. The compound `COc1cc2sc3cc(OC)c(F)cc3c(=O)c2cc1F` registered an absorption maximum (in CS(C)=O) of 316 nm. With `N#CC1=CC(/C=C/c2ccccc2)=CC(C#N)=P1(c1ccccc1)c1ccccc1`, the absorption maximum (in ClC(Cl)Cl) stood at 506 nm. Under “in ClC(Cl)Cl”, `Cc1cc(C)c(C2=C3C=CC=[N+]3[B-]3(c4ccc5ccc6cccc7ccc4c5c67)Oc4cc(O)cc5c6ccc(C)cc6c6cc2n3c6c45)c(C)c1` (stereo not given) returned an absorption maximum of 647 nm. For the compound `CCN1CCN(c2ccc(/N=N/c3cc([N+](=O)[O-])cc([N+](=O)[O-])c3)cc2)CC1`, the absorption maximum (in CCOC(C)=O) was 454 nm.

For the compound `Cc1cc(C)c2nc3c(=O)[nH]c(=O)[nH]c3nc2c1`, the absorption maximum (in CC#N) is recorded as 350 nm. `CCNc1cc2oc(=O)cc(C)c2cc1C` gave an absorption maximum (in CC#N) of 354 nm. Where the note is “in CS(C)=O”, `C[N+]1=C(/C=C/C=C2/N(CCC[N+](C)(C)C)c3ccc(S(=O)(=O)[O-])cc3C2(C)C)C(C)(C)c2ccccc21` came in with an absorption maximum of 556 nm.

As for `Fc1c(F)c(-n2c3ccccc3c3ccccc32)c(F)c(F)c1/C=C/c1ccc(C(=C(c2ccccc2)c2ccccc2)c2ccccc2)cc1`, the absorption maximum (in Cc1ccccc1) came to 367 nm.

Compound `COc1cc2cc(/C=C/c3ccc(/C=C(\C#N)C(=O)O)cc3)c(=O)oc2cc1OC` registered an absorption maximum (in CC#N) of 400 nm. Regarding `CC(C)(C)c1ccc2c(c1)Sc1cc(C(C)(C)C)ccc1N2c1ccc2c(ccc3nc4ccc5cc(N6c7ccc(C(C)(C)C)cc7Sc7cc(C(C)(C)C)ccc76)ccc5c4nc32)c1`, the absorption maximum runs as follows: (in C1CCCCC1) 451 nm; (in C1CCOC1) 452 nm; (in Cc1ccccc1) 451 nm. `c1ccc2c(c1)ccc1oc3ccc4cc5oc6ccc7ccc8oc9ccc%10ccccc%10c9c8c7c6c5cc4c3c12` registered an absorption maximum (in CC#N) of 352 nm. As to `F[B-]1(F)n2c(c3ccccc3c2-c2ccccc2)N=C2c3ccccc3C(c3ccccc3)=[N+]21`, the absorption maximum (in ClCCl) is 712 nm. Take `COc1cc(C2=c3c(c4ccc(C(C)(C)C)cc4c4cc(C(C)(C)C)ccc34)=[N+]3C2=Nc2c(-c4cc(OC)c(OC)c(OC)c4)c4c5ccc(C(C)(C)C)cc5c5cc(C(C)(C)C)ccc5c4n2[B-]3(F)F)cc(OC)c1OC`: the absorption maximum (in Cc1ccccc1) was 787 nm. Regarding `CN(C)c1cc(F)c(C(=O)c2cc(F)c(N(C)C)cc2F)cc1F`, the absorption maximum (in CCO) is 358 nm.

`N#Cc1nn(-c2cc(F)cc(F)c2)nc1N1CCCC1`: the absorption maximum (in CC#N) stood at 350 nm. The compound `CCOC(=O)c1cc(C(=O)O)nc2cc(OC)ccc12` had an absorption maximum (in CCO) of 349 nm. Turning to `Cc1cc(C)c(-c2cc(-c3c(C)cc(C)cc3C)c3ccc4c(-c5c(C)cc(C)cc5C)cc(-c5c(C)cc(C)cc5C)c5ccc2c3c54)c(C)c1`, the absorption maximum (in ClCCl) was 363 nm. Consider `O=C(O)c1ccc(-c2cnc(-c3ccc(N(c4ccccc4)c4ccccc4)cc3)s2)cc1`, for which the absorption maximum (in CO) is listed as 387 nm.

For the compound `Cc1nc2c(ccc3c2sc(/C=C/c2ccc(N4CCN(C)CC4)cc2)[n+]3C)s1`, the absorption maximum by setting is: (in CO) 505 nm; (in ClC(Cl)Cl) 545 nm. `FC(F)(F)c1ccc(-n2c(-c3ccc(N(c4ccc(-c5ccc(N(c6ccc(-c7nc8c9ccccc9c9ccccc9c8n7-c7ccc(C(F)(F)F)cc7)cc6)c6ccc(-c7nc8c9ccccc9c9ccccc9c8n7-c7ccc(C(F)(F)F)cc7)cc6)cc5)cc4)c4ccc(-c5nc6c7ccccc7c7ccccc7c6n5-c5ccc(C(F)(F)F)cc5)cc4)cc3)nc3c4ccccc4c4ccccc4c32)cc1` registered an absorption maximum (in ClCCl) of 376 nm. On to `c1csc(-c2ccc(-c3cccs3)c3nsnc23)c1`, for which the absorption maximum (in ClC(Cl)Cl) was 445 nm. Compound `CCOC(=O)c1ccc(C2CC(c3cccc4ccccc34)=NN2c2ccc(C)cc2)cc1` (stereo not given) registered an absorption maximum (in ClCCl) of 385 nm.

For the compound `CN1c2cc3nc4cc(Br)c(Br)cc4nc3cc2N(C)C1(C)C`, the absorption maximum (in CCO) came to 473 nm. In turn, `CCCCCCC1(CCCCCC)c2cc(-c3nc(-c4ccc5c(c4)C(CCCCCC)(CCCCCC)c4cc(-n6c7ccc(C(C)(C)C)cc7c7cc(C(C)(C)C)ccc76)ccc4-5)nc(-c4ccc5c(c4)C(CCCCCC)(CCCCCC)c4cc(-n6c7ccc(C(C)(C)C)cc7c7cc(C(C)(C)C)ccc76)ccc4-5)n3)ccc2-c2ccc(-n3c4ccc(C(C)(C)C)cc4c4cc(C(C)(C)C)ccc43)cc21` came in with an absorption maximum (in C1CCOC1) of 382 nm. For `CCCCN1c2ccccc2Sc2cc(/C=C/C3=Nc4ccc5ccccc5c4C3(C)C)ccc21`, the absorption maximum by setting is: (in C1CCCCC1) 414 nm; (in C1COCCO1) 417 nm; (in CCOC(C)=O) 416 nm; (in CCOCC) 414 nm; (in Cc1ccccc1) 423 nm. Compound `COc1ccc(-n2c(-c3ccc(-c4cncc5ccccc45)cc3)nc3c4ccccc4c4ccccc4c32)cc1` registered an absorption maximum (in C1CCOC1) of 365 nm. `CN(c1ccccc1)c1ccc(-c2ccc(-c3ccc(N(C)c4ccccc4)cc3)c3nc(-c4ccccc4)c(-c4ccccc4)nc23)cc1` gave an absorption maximum (in ClC(Cl)Cl) of 476 nm. Take `CCCCCCOc1ccc(/C=C/c2ccc(N(c3ccc(/C=C/c4ccc(OCCCCCC)cc4)cc3)c3ccc(-c4nc5ccccc5nc4-c4ccc(N(c5ccc(/C=C/c6ccc(OCCCCCC)cc6)cc5)c5ccc(/C=C/c6ccc(OCCCCCC)cc6)cc5)cc4)cc3)cc2)cc1`: the absorption maximum reads like this: (in C1CCOC1) 378 nm; (in Cc1ccccc1) 374 nm. Take `Cc1ccc2c(c1)C1(c3ccccc3-c3ccccc31)c1cc(C)ccc1N2c1ccc(-c2ncccn2)cc1`: the absorption maximum (in Cc1ccccc1) was determined as 380 nm. Regarding `CCN1c2ccc(/C=N/Nc3ccccn3)cc2Sc2cc(-c3ccc(OC)cc3)ccc21`, the absorption maximum came to 381 nm (in C1CCOC1), 386 nm (in CS(C)=O), 380 nm (in Cc1ccccc1) and 383 nm (in ClCCl). Compound `CC1=C(C2=C(C)C(C)=[N+]3C2=Cc2cc(C)c(C)n2[B-]3(F)F)C2=Cc3cc(C)c(C)n3[B-](F)(F)[N+]2=C1C` displayed an absorption maximum (in ClCCl) of 557 nm.

For `CCC1=C(C)C2=Cc3cccn3[B-](F)(F)[N+]2=C1C`, the absorption maximum was determined as 512.5 nm (in C1CCCCC1); 503.5 nm (in CC(C)=O); 505.5 nm (in CCO); 505 nm (in CCOC(C)=O); 504.5 nm (in CO); 494.5 nm (in OCC(F)(F)F). Where the note is “in ClCCl”, `CN(C)c1ccc(C2=Nc3ccc4c(C(F)(F)F)cc(C(F)(F)F)nc4[n+]3[B-](F)(F)O2)cc1` yielded an absorption maximum of 480 nm. With `O=S1(=O)c2ccccc2C2(c3cc(-c4ccc(N(c5ccccc5)c5ccccc5)cc4)ccc3-c3ccc(-c4ccc(N(c5ccccc5)c5ccccc5)cc4)cc32)c2ccccc21`, the absorption maximum (in ClCCl) amounted to 380 nm. On to `COc1cccc2cc(-c3ccc([N+](=O)[O-])cc3)c(=N)oc12`, for which the absorption maximum (in C1CCOC1) was determined as 339 nm, the absorption maximum (in CC#N) was determined as 332 nm, the absorption maximum (in CS(C)=O) worked out at 335 nm and the absorption maximum (in ClC(Cl)Cl) is recorded as 332 nm. As to `COC(=O)c1cc(=O)n(C)c2cc(-c3ccccc3)sc12`, the absorption maximum is on record as 392 nm (in CC#N) and 394 nm (in ClCCl). Compound `CCCC1=Cc2nc1ccc1[nH]c(cc1CCC)c1nc(c(OC(=O)CCCNC(=O)OC(C)(C)C)cc3[nH]c2cc3CCC)C(CCC)=C1` gave an absorption maximum (in Cc1ccccc1) of 645 nm. For the compound `C[C@]12SC(=O)C=C1c1nc(-c3ccccc3O)[nH]c1C1=CC(=O)S[C@@]12C`, the absorption maximum (in CC#N) turned out to be 455 nm.

As to `CC(O)CC1=N/C(=C\c2cccc(N(C)C)c2)C(=O)N1C` (stereo not given), the absorption maximum runs as follows: (in C1CCOC1) 356 nm; (in CC#N) 355 nm; (in CCCCCC) 352 nm. In turn, `CCN(CC)c1ccc2c(c1)oc(=O)c1cc3c(C)nn(-c4ccccc4)c3nc12` had an absorption maximum (in ClCCl) of 377 nm. Compound `CN1CCN(c2cccc(/C=C/c3ncc(-c4ccc(OCc5ccccc5)c(OCc5ccccc5)c4)o3)c2)CC1` had an absorption maximum (in ClCCl) of 354 nm. In the case of `CC1(C)C(/C=C/C=C/C=C/C=C2/N(CCC(=O)O)c3ccc4ccccc4c3C2(C)C)=[N+](CCC(=O)O)c2ccc3ccccc3c21`, the absorption maximum (in CO) was determined as 792 nm. On to `COc1ccc2c(c1)-c1nc(-c3ccccc3)c3ccccc3[n+]1[B-](F)(F)O2`, for which, under “in Cc1ccccc1”, the absorption maximum was found to be 434 nm. With `CCCCc1cc2cccc[n+]2[b-]2c(-c3cccc4[b-]3[n+]3ccccc3cc4CCCC)cccc21`, the absorption maximum (in C1CCCCC1) was found to be 446 nm. With `C(#Cc1nc2ccccc2s1)c1ccc(N(c2ccccc2)c2ccccc2)cc1`, under “in Cc1ccccc1”, the absorption maximum is reported as 388 nm. Compound `CCN1CCN(c2ccc(/N=N/c3cc(C(F)(F)F)cc(C(F)(F)F)c3)cc2)CC1` came in with an absorption maximum (in CCOC(C)=O) of 427 nm. For the compound `CC(C)(C)c1ccc(C2=c3sc(-c4ccc(C(C)(C)C)cc4)cc3=[N+]3C2=Nc2c(-c4ccc(C(C)(C)C)cc4)c4sc(-c5ccc(C(C)(C)C)cc5)cc4n2[B-]3(F)F)cc1`, under “in ClC(Cl)Cl”, the absorption maximum came out at 767 nm.

In the case of `CNc1ncc2nc(C#N)n(Cc3ccccc3)c2n1`, the absorption maximum reads like this: (in C1COCCO1) 342 nm; (in CC#N) 342 nm; (in CO) 342 nm; (in ClCCl) 341 nm. For the setting “in ClCCl”, `COc1ccc(-c2cc3c(ccc4sccc43)s2)cc1` yielded an absorption maximum of 333 nm. As for `Oc1cc(-c2ccco2)ccc1-c1nc2ccccc2s1`, the absorption maximum is given as 361 nm (in ClCCl) and 354 nm (in O). As for `COc1ccc(C(=O)/C=C2\C(=O)Nc3ccccc32)cc1`, the absorption maximum runs as follows: (in C1COCCO1) 337 nm; (in CC#N) 335 nm; (in CC(C)(C)O) 345 nm; (in CC(C)O) 345 nm; (in CCCCO) 345 nm; (in CCOC(C)=O) 339 nm. The absorption maximum is, setting by setting: (in CN(C)C=O) 344 nm; (in CO) 343 nm; (in ClCCl) 339 nm; (in O) 347 nm. Under “in CCO”, `Cc1c(COC(=O)Cc2ccccc2)n2c(OCC(=O)Cc3ccccc3)c(C)c(=O)n2c1=O` gave an absorption maximum of 379 nm.
